Experimental data published in paper PMC12040169 (PLOS Biology, 2025).

test: in vitro; conditions: human, hela cells, % viability

| Compound | viability at 28.5 h, 10 µM [%] |
| --- | --- |
| CC(=O)c1ccc(NC(=O)CSc2nc(O)cc(-c3ccccc3)n2)cc1 [CBK269048] | 96 |
| O=C(O)c1ccccc1-c1ccc(-c2cc(C(=O)O)c3cc(F)ccc3n2)o1 [CBK269051] | 98.8 |
| O=C(COc1ccc(S(=O)(=O)N2CCCCC2)cc1)NCc1ccncc1 [CBK269053] | 92.5 |
| CCCSc1ncc(Cl)c(C(=O)Nc2ccc(S(=O)(=O)N3CC(C)OC(C)C3)cc2)n1 (stereo not shown) [CBK269055] | 100 |
| COc1ccccc1-c1noc(CSc2nnc(-c3ccccc3)n2-c2ccc(C)c(C)c2)n1 [CBK269058] | 105 |
| Cc1cc(C)cc(N(C(C)C(=O)N2CCN(Cc3ccc4c(c3)OCO4)CC2)S(C)(=O)=O)c1 (stereo not shown) [CBK269060] | 90.3 |
| O=C(CSc1nnc(Cc2ccccc2)n1-c1ccc(Cl)cc1)Nc1cc(Cl)ccc1O [CBK269061] | 99.9 |
| COc1cccc(/C=C\c2onc(C)c2[N+](=O)[O-])c1OCC(=O)O [CBK269063] | 104 |
| CSc1ncc(Cl)c(C(=O)Nc2nc(-c3ccc(S(=O)(=O)N4CCOCC4)cc3)cs2)n1 [CBK269064] | 102 |
| Cc1ccc(OC(C)C(=O)NNC(=O)c2ccc([N+](=O)[O-])cc2)cc1 (stereo not shown) [CBK269065] | 104 |
| CCN1CCN(c2c(Cl)cccc2NC(=O)c2ccc(N3CCOCC3)c([N+](=O)[O-])c2)CC1 [CBK269066] | 98.8 |
| O=S(=O)(N1CCOCC1)N1CCCN(S(=O)(=O)N2CCOCC2)CC1 [CBK269068] | 103 |
| Cc1ccc(-n2c(SCC(=O)N3CCCCC3)nnc2-c2cc(Br)ccc2O)c(C)c1 [CBK269070] | 94.7 |
| O=C(c1ccncc1)c1ccc(N2CCN(C3CC(=O)N(Cc4cccs4)C3=O)CC2)cc1 (stereo not shown) [CBK269074] | 94.6 |
| CCOc1ccccc1-c1noc(CSc2nnc(-c3ccncc3)n2-c2cccc(C)c2)n1 [CBK269076] | 104 |
| O=C(CSc1nc(Nc2ccccc2)nc(N2CCOCC2)n1)N1CCN(c2ccccc2)CC1 [CBK269078] | 98.5 |
| CN1CCN(c2ccc(NC(=O)c3ccc(OCc4ccccc4)cc3)cc2Cl)CC1 [CBK269080] | 96.2 |
| CN(C)S(=O)(=O)N(CC(=O)NCc1ccccc1Cl)c1ccccc1 [CBK269081] | 103 |
| Cc1nc(NC(=N)Nc2ccccc2C(F)(F)F)[nH]c(=O)c1Cc1ccccc1 [CBK269083] | 99.8 |
| Cc1ccc(OCCn2c(=N)n(CCN3CCOCC3)c3ccccc32)cc1 [CBK269085B] | 97.9 |
| CNC(=O)c1c(NC(=O)c2nc(SCc3ccccc3)ncc2Cl)sc2c1CCCC2 [CBK269087] | 93.9 |

| Compound | viability at 28.5 h, 10 µM [%] |
| --- | --- |
| Clc1ccccc1-c1nnc(Cn2c3ccc(Br)cc3c3nc4ccccc4nc32)o1 [CBK269091] | 88.5 |
| Cn1c(=O)c2[nH]c(-c3ccc(OCC(=O)NCCc4ccccc4)cc3)nc2n(C)c1=O [CBK269092] | 97.9 |
| O=C(CCn1cnc2ccccc21)NNC(=O)Nc1cccc(C(F)(F)F)c1 [CBK269093] | 93.9 |
| O=C(c1ccccc1[N+](=O)[O-])n1nc(-c2cccnc2)nc1NCc1cccs1 [CBK269094] | 99.5 |
| O=C(Cc1ccccc1)N1CCN(S(=O)(=O)N2CCCCC2)CC1 [CBK269097] | 85.2 |
| COc1ccc(S(=O)(=O)N(C)c2ccc(C(=O)NCc3ccccn3)cc2)cc1 [CBK269099] | 88.1 |
| CC(=O)c1c(C)nn(C(C)CC(=O)O)c1C (stereo not shown) [CBK269101] | 103 |
| C=CCn1c(SCC(=O)Nc2cc(Cl)ccc2O)nnc1-c1ccccc1O [CBK269102] | 100 |
| CN(C)CCCn1c(=O)[nH]c2sc3c(c2c1=N)CC(C)(C)OC3 [CBK269103] | 107 |
| CSc1nsc(SCC(=O)c2ccc(Oc3ccccc3)cc2)n1 [CBK269104] | 96.8 |
| Cc1cc2nc(/C(C#N)=C/c3cc(C)n(-c4ccc(C(=O)O)cc4)c3C)[nH]c2cc1C [CBK269105] | 92.1 |
| Cc1cc2ncc(-c3[nH]ncc3[N+](=O)[O-])cn2n1 [CBK269106] | 98.1 |
| O=C(CSc1nc(N2CCOCC2)nc(N2CCOCC2)n1)c1ccc([N+](=O)[O-])cc1 [CBK269107] | 86.9 |
| Cc1c(Br)c([N+](=O)[O-])nn1C(C)C(=O)NCc1ccco1 (stereo not shown) [CBK269108] | 92.2 |
| CCOc1ccc2nc(NC(=O)c3nc(SCc4ccccc4)ncc3Cl)sc2c1 [CBK269109] | 97.1 |
| Cc1ccc(C)c(NS(=O)(=O)c2cc(C(=O)NCc3ccccn3)ccc2C)c1 [CBK269110] | 98.3 |
| Cc1c(Cl)c([N+](=O)[O-])nn1CCCC(=O)Nc1sc2c(c1C#N)CCC(C(C)(C)C)C2 (stereo not shown) [CBK269111] | 108 |
| Cc1ccc(-n2c(SCC(=O)N3CCOCC3)nnc2-c2ccccc2O)c(C)c1 [CBK269112] | 88.1 |
| Cc1ccc(C(C)C)c(OC(=O)c2ccc3nccnc3c2)c1 [CBK269114] | 62.7 |
| O=S1(=O)N=C(Nc2ccc(S(=O)(=O)N3CCOCC3)cc2)c2ccccc21 [CBK269116] | 91 |
| O=C(O)CCC(=O)N1CCN(c2ccc(C(=O)c3ccc(F)cc3)cc2)CC1 [CBK269119] | 112 |

| Compound | viability at 28.5 h, 10 µM [%] |
| --- | --- |
| Cc1ccc(NS(=O)(=O)c2ccc(OCC(=O)Nc3ccccc3C(F)(F)F)cc2)cc1 [CBK269120] | 86.4 |
| COc1ccc(-n2c(SCCCN3C(=O)c4cccc5cccc(c45)C3=O)nnc2-c2ccncc2)cc1 [CBK269123] | 94.2 |
| COc1ccc(C(CC(=O)O)NC(=O)c2ccc(Cl)cc2Cl)cc1 (stereo not shown) [CBK269131] | 91.8 |
| NS(=O)(=O)c1ccc(CCNC(=O)Nc2ccc(Cl)c(Cl)c2)cc1 [CBK269133] | 90.3 |
| Cc1cc(C)n(-c2nc3ccccc3nc2N2CCN(S(=O)(=O)c3ccc4ccccc4c3)CC2)n1 [CBK269134] | 103 |
| COCCNC(=O)C1CCCCC1C(=O)O (stereo not shown) [CBK269135] | 108 |
| Cc1nn(C(C)CC(=O)O)c(C)c1Br (stereo not shown) [CBK269138] | 91.7 |
| N#C/C(=C/c1ccc(Sc2nc3ccccc3[nH]2)o1)c1ccc(C(=O)O)cc1 [CBK269141] | 112 |
| Oc1ccc(Nc2ncnc3scc(-c4ccccc4)c23)cc1 [CBK269146C] | 108 |
| O=C(NCC(c1ccccc1)c1c[nH]c2ccccc12)Nc1ccc(Cl)cc1 (stereo not shown) [CBK269147] | 91.9 |
| COc1ccc(CC(=O)Nc2cccc(-c3cn4ccc(C)cc4n3)c2)cc1OC [CBK269148] | 84.5 |
| Cn1c(SCC(=O)O)nnc1-c1cc(Br)ccc1O [CBK269150] | 103 |
| CCc1cccc(CN2CCC(CNC(=O)Nc3ccc(Cl)cc3)CC2)c1 [CBK269151] | 93.4 |
| CCOC(=O)c1cnc(SCC(=O)N2CCN(c3ccccc3)CC2)nc1N [CBK269159] | 90.5 |
| O=C(O)CCCNS(=O)(=O)c1ccc(I)cc1 [CBK269160] | 102 |
| COc1ccc(S(=O)(=O)N2CCCC(C(=O)Nc3ccc(C(N)=O)cc3)C2)cc1C (stereo not shown) [CBK269163] | 99.4 |
| O=C(O)c1cccc(CSc2nnc(-c3ccccc3)c(-c3ccccc3)n2)c1 [CBK269165] | 97.6 |
| O=C(CSCCO)Nc1ccc(Oc2ccccc2)cc1 [CBK269167] | 98.4 |
| COC(=O)c1c(NC(=O)C(=O)NCc2cccnc2)sc2c1CCCC2 [CBK269170] | 88.8 |
| COc1cccc(C(=O)c2snc(Nc3ccc(F)cc3)c2N)c1 [CBK269173] | 117 |
| COc1ccccc1C(=O)NCCNC(=O)c1ccccn1 [CBK269174] | 104 |

| Compound | viability at 28.5 h, 10 µM [%] |
| --- | --- |
| Cc1cc2occ(CC(=O)NCc3ccccn3)c2c(C)c1Cl [CBK269175] | 97.5 |
| CN1CCN(Cc2nc3c(c(=O)n(C)c(=O)n3C)n2Cc2c(F)cccc2Cl)CC1 [CBK269179] | 98.3 |
| CC1(C)Cc2nc3sc4c(=O)n(CC(=O)NCCc5ccccc5)cnc4c3cc2CS1 [CBK269180] | 97.8 |
| O=C(c1ccccc1Cl)N1N=C(c2cccnc2)CC1c1ccccc1O (stereo not shown) [CBK269182] | 102 |
| Cc1nnc2sc(-c3cccc4ccccc34)nn12 [CBK269185] | 39.8 |
| CC1CCCCN1Cc1nc2c(c(=O)n(C)c(=O)n2C)n1CCc1ccccc1 (stereo not shown) [CBK269189] | 117 |
| COc1ccc(N2CCN(C(=S)c3ccc(OCC(N)=O)cc3)CC2)cc1 [CBK269190] | 100 |
| O=C(Nc1cccc(F)c1)C(c1ccccc1)N1CCOCC1 (stereo not shown) [CBK269191] | 84.5 |
| CCOc1ccc(CNc2ccc(N3CCOCC3)c(C(=O)O)c2)cc1OC [CBK269192] | 93 |
| O=C(NCCCNC(=O)c1ccccn1)c1ccc(Cl)cc1 [CBK269193] | 88.5 |
| Cc1ncc([N+](=O)[O-])n1CC(=O)NC1CCCCCC1 [CBK269194] | 97.4 |
| COc1cc(Cl)cc(CNCCO)c1OC(C)C [CBK269196C] | 86.7 |
| O=C1CC(N2CCN(C3CC(=O)N(Cc4ccccc4)C3=O)CC2)C(=O)N1Cc1ccccc1 (stereo not shown) [CBK269198] | 122 |
| CC1CCCCN1Cc1nc2c(c(=O)n(C)c(=O)n2C)n1Cc1ccccc1 (stereo not shown) [CBK269203] | 105 |
| CC1(C)CC(=O)C2=C(C1)c1onc(N)c1C2Cc1ccccc1 (stereo not shown) [CBK269206] | 110 |
| COc1ccc(OC)c(NC(=O)CSc2nnc(-c3ccncc3)s2)c1 [CBK269209] | 97.2 |
| O=S(=O)(N1CCCCCC1)N1CCN(S(=O)(=O)N2CCCCCC2)CC1 [CBK269210] | 88.3 |
| C=C(C)CN1CCN(C(=O)c2cc3cccc(OC)c3oc2=O)CC1 [CBK269211] | 59 |
| O=C(CN1CCOCC1)NC(=O)Nc1ccccc1 [CBK269213] | 98 |
| COCCN(Cc1cc2ccc(C)cc2nc1O)S(=O)(=O)c1ccccc1 [CBK269216] | 99.6 |
| COC(=O)c1c(NC(=O)C2CC(=O)NN2C)sc2c1CCC2 (stereo not shown) [CBK269218A] | 89.2 |

same assay, conditions: human, hela cells, % viability, bulk resorufin, single well

| Compound | viability at 28.5 h, 10 µM [%] |
| --- | --- |
| Cc1cccc(N2C(=O)NC(=O)C(CCc3ccccn3)(CCc3ccccn3)C2=O)c1C [CBK269075] | 91.7 |
